Results as given in article PMC8472512, “Synthesis and Biochemical Evaluation of Baicalein Prodrugs” (Pharmaceutics, 2021).
Values belong to the compound of their own block, whether it stands above or below them.

Columns and labels:
Mouse pharmacokinetics = type: in vivo, male ICR mice; details: for AUC(0-t) / Cmax / Tmax / AUC(0-inf) / half-life: male, ICR, mouse
Method: Pharmacokinetic studies were conducted with male ICR mice (8 weeks old; 30–35 g body wt.) purchased from Koatech Company (Pyeongtaek, Korea), as reported previously. Intravenous dosing solutions were prepared in EtOH/20% aqueous HPβCD (10/90 vol%) at 2 and 3 mg/mL for baicalein and compound 2, respectively. Oral dosing solutions were prepared in EtOH/tween 80/20% aqueous HPβCD (10/10/80 vol%) at 1 and 1.5 mg/mL for baicalein and compound 2, respectively. Plasma sample analysis was performed as described above in mouse plasma stability assay.

in vitro = details: PAMPA
[1] = Metabolic stability in mouse liver S9 fractions; type: in vitro ADME; details: presence of the cofactor mixture (NADPH, UDPGA, PAPS, GSH), 37 °C, 60 min
Method: Working solutions of the test compounds (baicalein, 7-EC, and compounds 1–7) prepared in 50 vol% aqueous MeOH at 120 μM were added in triplicate to a 200 mM tris buffer (pH 7.4) containing mouse liver S9 fractions (1 mg protein/mL), alamethicin (25 μg/mL) and MgCl2 (2 mM). The final concentration of test compound was 3 μM. This mixture was pre-incubated at 37 °C in a shaking water bath for 5 min followed by addition of a cofactor mixture to following final concentrations: 1 mM NADPH, 0.5 mM UDPGA, 0.1 mM PAPS and 2.5 mM GSH. A 50 μL aliquot was taken at 0, 15, 30 and 60 min from each incubation mixture. These samples were then treated in the same way as described above in Mouse plasma stability assay. The supernatant was analyzed by Agilent 6530 Q−TOF LC−MS/MS system in a positive auto MS/MS scan mode. The liquid chromatography was conducted in the same condition as described above in mouse plasma stability assay. The analytical data were analyzed using Agilent MassHunter Quantitative Analysis Software (version B.05.00). MS chromatograms were extracted using calculated exact masses ([M+H]^+) for the analytes. Peak area ratios of the analytes vs. IS on the extracted MS chromatograms were used to calculate % remaining values at each time points.

[2] = logD7.4 by shake-flask method; type: physicochemical; details: 1-octanol / 0.1 M potassium phosphate buffer, 0.1 M phosphate buffer (pH 7.4), duplicate
Method: The assay was conducted as reported previously. Briefly, 100 µM test solutions were prepared by diluting 10 mM stock solutions of the test compounds (baicalein and compounds 1–7) in 0.1 M potassium phosphate buffer (pH 7.4) saturated with 1-octanol. Standard solutions were prepared by diluting each test solution with the same volume of DMSO in HPLC vials. Partition solutions were prepared by mixing each test solution and 1-octanol saturated with 0.1 M potassium phosphate buffer (pH 7.4) at three different volume ratios, namely 1:0.02, 1:0.2 and 1:2, in HPLC vials. The partition solutions were then vortexed for 1 h at 1500 rpm at rt. The standard solutions and the aqueous phase (bottom layer) of each partition solution were analyzed directly from the HPLC vials as described above in Chemical stability assay. The logD7.4 values were calculated by the following equation: logD7.4=log(2×As/Ap−1)·Vt/Vo where As and Ap are, respectively, the peak areas of the standard and the aqueous phase of the partition solutions and Vt and Vo the volumes of test solution and 1-octanol of the partition solutions.

[3] = Chemical stability in physiologically-relevant solutions; type: physicochemical; details: 37 °C; for remaining at 4 h, 10 μM: at 4 h vs time 0
Method: Stock solutions of the test compounds (baicalein, compounds 1–7) prepared in MeOH at 10 mM were diluted in 0.1 N HCl and 0.1 M potassium phosphate buffer (pH 6.5 and 7.4) in triplicate to a final concentration of 10 μM. The mixtures were then incubated at 37 °C in a shaking water bath. Samples taken at 0, 1, 2, 3 and 4 h were analyzed by Thermo UltiMate 3000 series HPLC system. Chromatographic separation was performed on an Agilent Eclipse Plus C18 column (100 × 4.6 mm, 3.5 µm) kept at 40 °C with isocratic elution at a flow rate of 0.6 mL/min using a mixture of 0.1 vol% TFA in deionized water and acetonitrile as the mobile phase. The detection wavelengths were 277 and 270 nm for baicalein and compounds 1–7, respectively. Peak areas of the analytes on the UV chromatograms were used to calculate % remaining values at each time points.
The stability of baicalein and of the synthesized carbamate prodrugs (1–7) was determined in solutions mimicking gastric (0.1 N HCl, pH ~ 1), intestinal (pH 6.5 phosphate buffer), and physiological (pH 7.4 phosphate buffer) conditions. […]. […] […]. The degradation of the carbamate prodrugs was accompanied by the formation of baicalein under all conditions in this study (data not shown). Although the exact reason for this pH-dependent stability remains unknown, it is plausible that the side chains of amino acids somehow affect the hydrolysis of the carbamate bond of the prodrugs.

[4] = Stability in mouse plasma; type: in vitro ADME
Method: Working solutions of the test compounds (baicalein, enalapril, and compounds 1–7) prepared in 50 vol% aqueous MeOH at 40 μM were diluted in mouse plasma in triplicate to a final concentration of 1 μM. The mixtures were then incubated at 37 °C in a shaking water bath. A 50 μL aliquot was removed at 0 and 60 min from each incubation mixture followed by immediate mixing with 150 μL ice-cold MeOH containing 1 μg/mL glipizide as the internal standard (IS). The resulting mixtures, following a 5-min vortexing and sonication, were then centrifuged at 3000 rpm for 30 min at 4 °C. The supernatant was analyzed by Agilent 6460 QQQ LC−MS/MS system in a positive multiple reaction monitoring (MRM) mode. Gradient elution was conducted on an Agilent Eclipse Plus C18 column (100 × 2.1 mm, 3.5 µm) at 40 °C with 0.1 vol% formic acid in deionized water and 0.1 vol% formic acid in acetonitrile running at 0.45 mL/min. MRM transitions of the analytes were set as follows: baicalein: m/z 271→123, enalapril: m/z 377→234, 1: m/z 428→271, 2: m/z 414→271, 3: m/z 428→271, 4: m/z 416→271, 5: m/z 462→271, 6: m/z 386→271, 7: m/z 372→271, and glipizide: m/z 446→321. The analytical data were analyzed using Agilent MassHunter Quantitative Analysis Software (version B.05.00). Peak area ratios of the analytes vs. IS on the MRM chromatograms were used to calculate % remaining at 60 min.

[5] = iv, plasma analyte after single i.v. dose of baicalein 10 mg/kg, mice
[6] = iv, plasma analyte after single i.v. dose of compound 2 15 mg/kg, mice
[7] = po, plasma analyte after single p.o. dose of compound 2 50 mg/kg, mice

Structure (SMILES): O=c1cc(-c2ccccc2)oc2cc(O)c(O)c(O)c12 [Baicalein, 5,6,7-trihydroxy-2-phenyl-4H-1-benzopyran-4-one]
time plasma analyte was above the quantitation limit (Mouse pharmacokinetics; after i.v. dose of compound 2 (approximately equimolar to 10 mg/kg baicalein), mice): 8 h | time plasma analyte was above the quantitation limit (Mouse pharmacokinetics; after p.o. administration of compound 2, mice): 8 h | time plasma analyte was above the quantitation limit (Mouse pharmacokinetics; after single i.v. dose of 10 mg/kg baicalein, mice): up to 15 min | time plasma analyte was above the quantitation limit (Mouse pharmacokinetics; after single p.o. dose of 10 mg/kg baicalein, mice, 24 h time course): below the quantitation limit | AUC(0-t) (Mouse pharmacokinetics; [5]): 1090 ± 640 ng·h/mL | Cmax (Mouse pharmacokinetics; [5]): 1470 ± 330 ng/mL | Tmax (Mouse pharmacokinetics; [5]): 0.1 h | AUC(0-inf) (Mouse pharmacokinetics; [6]): 4390 ± 1570 ng·h/mL | AUC(0-t) (Mouse pharmacokinetics; [6]): 4240 ± 1430 ng·h/mL | Cmax (Mouse pharmacokinetics; [6]): 4190 ± 450 ng/mL | Tmax (Mouse pharmacokinetics; [6]): 0.1 h | half-life (Mouse pharmacokinetics; [6]): 1.5 ± 0.3 h | AUC(0-inf) (Mouse pharmacokinetics; [7]): 540 ± 150 ng·h/mL | AUC(0-t) (Mouse pharmacokinetics; [7]): 450 ± 140 ng·h/mL | Cmax (Mouse pharmacokinetics; [7]): 230 ± 90 ng/mL | Tmax (Mouse pharmacokinetics; [7]): 0.3 ± 0.09 h | half-life (Mouse pharmacokinetics; [7]): 2.6 ± 1.5 h | Papp (in vitro): 5.75 ± 0.14 ×10⁻⁶ cm/s | metabolism in mouse liver S9 fractions [1]: rapidly metabolized | logD [2]: 2.14 | half-life at 10 μM ([3]; 0.1 M potassium phosphate buffer, pH 6.5 buffer (0.1 M potassium phosphate)): > 4 h | remaining at 4 h, 10 μM ([3]; 0.1 M potassium phosphate buffer, pH 6.5 buffer): 101 ± 2.8% | half-life at 10 μM ([3]; 0.1 M potassium phosphate buffer, pH 7.4 buffer (0.1 M potassium phosphate)): > 4 h | remaining at 4 h, 10 μM ([3]; 0.1 M potassium phosphate buffer, pH 7.4 buffer): 65.8 ± 2.6% | half-life at 10 μM ([3]; pH 1, 0.1 N HCl, 10 μM): > 4 h | remaining at 4 h, 10 μM ([3]; pH 1, 0.1 N HCl): 104 ± 4.1% | remaining at 1 h, 1 μM ([4]; mouse, plasma): > 85%

% remaining in mouse plasma ([4]; 60 min incubation at 37 °C, 1 μM): degraded
Structure (SMILES): CCOC(=O)[C@H](CCc1ccccc1)N[C@@H](C)C(=O)N1CCC[C@H]1C(=O)O [Enalapril, enalapril]
